Earlier results as cited in patent publication US20200229456A1, “Synergistic Formulation Including At Least One Gibberellin Compound and Salicyclic Acid” (Stoller Enterprises, Inc., priority 2018, published 2020).

Key:
tomatoes = conditions: GA3 at 0.1%, CaCl2 at 1.5%, SA at 0.4 mM
banana slices = conditions: GA3 applied exogenously on banana slices
Cavendish bananas = conditions: 300 ppm GA3 or 4 mM SA, versus other treatments
Bananas = conditions: SA at either 0.5 mM or 1 mM

SMILES: [Ca+2].[Cl-].[Cl-] [CaCl2, calcium chloride]
- shelf life of tomatoes (tomatoes): extended the shelf life

SMILES: C=C1C[C@]23C[C@@]1(O)CC[C@H]2[C@@]12C=C[C@H](O)[C@@](C)(C(=O)O1)[C@H]2[C@@H]3C(=O)O [GA3, gibberellic acid]
- postponement of accumulation of sucrose (banana slices): 2 days
- respiration rate or ethylene profile (banana slices): does not alter
- shelf life of tomatoes (tomatoes): extended the shelf life
- delay in ripening (Cavendish bananas): more considerable delay in ripening

SMILES: O=C(O)c1ccccc1O [SA, Salicylic acid]
- fruit firmness (Bananas): firmer fruits
- respiration rates (Bananas): decrease in respiration rates
- sugar content (Bananas): lower sugar content
- shelf life of tomatoes (tomatoes): extended the shelf life
- delay in ripening (Cavendish bananas): more considerable delay in ripening
